Laboratory results from patent US9611249B2, “1H-indazole-3-carboxamide compounds as glycogen synthase kinase 3 beta inhibitors” (AZIENDE CHIMICHE RIUNITE ANGELINI FRANCESCO A.C.R.A.F. …, priority 2012, dated 2017).

Tests used:
[1] = molecular target: CDC2/CDK1 (h) (cycB) (Homo sapiens (Human), UniProt P06493); test: Kinase selectivity panel: CDC2/CDK1 (h) (cycB); assay type: biochemical; details: 10 μM in duplicate, read-out: % inhibition of control values
Experimental: (§1) (a) Compounds 1 and 2 were tested against a panel of 60 kinases in order to assess their selectivity. The assays were chosen taking into consideration the diversity of assay families.
(§2) Tested kinases were representative of following kinase sub-families: • protein-serine/threonine kinases; • protein-tyrosine kinases; • other kinases; and • atypical kinases.
(§3) Human recombinant kinases were incubated in the presence of specific peptide substrates plus ATP for different times (10, 15, 30, 60 or 90 minutes) at 22° C. Phosphorylated substrate was detected by LANCE or HTRF technology (CISBIO, MA, USA). The compounds were tested at 10 μM in duplicate.
(§4) The results are expressed as a percentage of inhibition of control specific activity obtained in the presence of the test compounds and are reported in the following Table 5.
(§5) (b) Compounds 3, 8, 29 and 31 were tested against the same panel of 60 kinases under the same conditions described above for compounds 1 and 2.
(§6) The results are expressed as a percent of inhibition of control specific activity obtained in the presence of the test compounds and are reported in the following Table 6.

[2] = molecular target: CDK5/p35 (h) (Homo sapiens (Human), UniProt Q00535); test: Kinase selectivity panel: CDK5/p35 (h); assay type: biochemical; details: 10 μM in duplicate, read-out: % inhibition of control values
Experimental: as §1, §2, §3, §4, §5, §6

[3] = molecular target: HGK (h) (MAP4K4) (Homo sapiens (Human), UniProt O95819); test: Kinase selectivity panel: HGK (h) (MAP4K4); assay type: biochemical; details: 10 μM in duplicate, read-out: % inhibition of control values
Sequence of HGK (h) (MAP4K4) (O95819 whole entry): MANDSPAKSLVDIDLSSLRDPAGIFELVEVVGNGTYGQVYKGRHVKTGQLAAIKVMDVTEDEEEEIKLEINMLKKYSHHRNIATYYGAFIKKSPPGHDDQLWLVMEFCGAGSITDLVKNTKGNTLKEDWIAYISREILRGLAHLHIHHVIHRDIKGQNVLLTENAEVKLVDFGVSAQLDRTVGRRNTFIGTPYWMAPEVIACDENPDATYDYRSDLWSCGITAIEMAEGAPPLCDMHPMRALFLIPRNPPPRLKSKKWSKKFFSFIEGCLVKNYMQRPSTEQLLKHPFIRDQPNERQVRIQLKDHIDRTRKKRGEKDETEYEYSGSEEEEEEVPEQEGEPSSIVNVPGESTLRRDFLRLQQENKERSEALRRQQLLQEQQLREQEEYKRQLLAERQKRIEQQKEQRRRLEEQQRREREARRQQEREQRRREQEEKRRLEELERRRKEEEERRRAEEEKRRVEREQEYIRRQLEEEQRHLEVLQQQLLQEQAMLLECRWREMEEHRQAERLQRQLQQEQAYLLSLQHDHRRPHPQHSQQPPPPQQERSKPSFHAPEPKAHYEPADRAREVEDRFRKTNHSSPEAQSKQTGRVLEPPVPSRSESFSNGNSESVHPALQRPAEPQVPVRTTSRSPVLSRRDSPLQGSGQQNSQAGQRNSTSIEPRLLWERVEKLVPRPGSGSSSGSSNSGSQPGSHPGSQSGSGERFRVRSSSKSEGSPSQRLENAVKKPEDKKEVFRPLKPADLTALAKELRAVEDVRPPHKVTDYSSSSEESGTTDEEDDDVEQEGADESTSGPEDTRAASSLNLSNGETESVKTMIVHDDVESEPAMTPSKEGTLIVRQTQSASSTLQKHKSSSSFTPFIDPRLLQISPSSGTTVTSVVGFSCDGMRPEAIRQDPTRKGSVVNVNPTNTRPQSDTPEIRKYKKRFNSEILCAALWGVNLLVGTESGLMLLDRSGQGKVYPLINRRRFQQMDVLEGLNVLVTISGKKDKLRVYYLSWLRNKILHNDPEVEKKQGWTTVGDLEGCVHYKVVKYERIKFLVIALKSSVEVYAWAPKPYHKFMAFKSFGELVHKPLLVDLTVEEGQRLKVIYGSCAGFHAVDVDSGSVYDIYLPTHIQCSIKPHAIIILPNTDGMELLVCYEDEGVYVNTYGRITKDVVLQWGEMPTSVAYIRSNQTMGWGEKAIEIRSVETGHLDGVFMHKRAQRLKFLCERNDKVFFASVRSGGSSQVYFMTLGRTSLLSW
Experimental: as §1, §2, §3, §4, §5, §6

[4] = molecular target: TAOK2 (TAO1) (h) (Homo sapiens (Human), UniProt Q9UL54); test: Kinase selectivity panel: TAOK2 (TAO1) (h); assay type: biochemical; details: 10 μM in duplicate, read-out: % inhibition of control values
Sequence of TAOK2 (TAO1) (h) (Q9UL54 whole entry): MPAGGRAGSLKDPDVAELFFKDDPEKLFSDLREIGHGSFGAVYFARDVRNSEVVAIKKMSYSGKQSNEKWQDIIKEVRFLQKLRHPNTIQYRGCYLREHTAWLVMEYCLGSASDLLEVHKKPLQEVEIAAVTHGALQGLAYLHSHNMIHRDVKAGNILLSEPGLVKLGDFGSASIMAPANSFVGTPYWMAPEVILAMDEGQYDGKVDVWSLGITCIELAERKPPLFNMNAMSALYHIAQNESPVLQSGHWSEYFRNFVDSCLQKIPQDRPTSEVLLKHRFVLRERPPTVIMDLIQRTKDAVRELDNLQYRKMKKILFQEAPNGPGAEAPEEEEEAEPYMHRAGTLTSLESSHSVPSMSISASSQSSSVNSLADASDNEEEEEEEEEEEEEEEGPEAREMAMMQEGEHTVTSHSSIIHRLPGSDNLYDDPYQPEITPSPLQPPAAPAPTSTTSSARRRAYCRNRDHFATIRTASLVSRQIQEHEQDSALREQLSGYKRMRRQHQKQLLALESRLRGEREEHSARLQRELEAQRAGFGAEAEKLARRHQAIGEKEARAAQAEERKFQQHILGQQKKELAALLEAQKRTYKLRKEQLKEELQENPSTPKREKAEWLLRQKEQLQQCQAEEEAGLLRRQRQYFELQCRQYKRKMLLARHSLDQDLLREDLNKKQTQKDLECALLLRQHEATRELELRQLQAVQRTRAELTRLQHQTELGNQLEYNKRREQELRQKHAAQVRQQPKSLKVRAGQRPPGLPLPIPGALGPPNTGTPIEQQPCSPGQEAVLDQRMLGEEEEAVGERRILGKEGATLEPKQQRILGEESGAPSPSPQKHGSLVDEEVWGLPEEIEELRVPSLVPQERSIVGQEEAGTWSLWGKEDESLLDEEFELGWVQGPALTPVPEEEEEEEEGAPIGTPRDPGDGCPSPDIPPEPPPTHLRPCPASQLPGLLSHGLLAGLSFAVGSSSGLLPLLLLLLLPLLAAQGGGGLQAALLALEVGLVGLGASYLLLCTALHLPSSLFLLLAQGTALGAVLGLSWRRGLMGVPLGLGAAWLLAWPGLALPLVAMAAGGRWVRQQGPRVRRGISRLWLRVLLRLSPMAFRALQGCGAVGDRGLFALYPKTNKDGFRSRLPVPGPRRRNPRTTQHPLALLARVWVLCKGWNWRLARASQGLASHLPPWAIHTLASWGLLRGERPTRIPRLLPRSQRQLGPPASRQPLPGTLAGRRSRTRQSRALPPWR
Experimental: as §1, §2, §3, §4, §5, §6

[5] = molecular target: DYRK1a (h) (Homo sapiens (Human), UniProt Q13627); test: Kinase selectivity panel: DYRK1a (h); assay type: biochemical; details: 10 μM in duplicate, read-out: % inhibition of control values
Experimental: as §1, §2, §3, §4, §5, §6

[6] = molecular target: NEK1 (h) (Homo sapiens (Human), UniProt Q96PY6); test: Kinase selectivity panel: NEK1 (h); assay type: biochemical; details: 10 μM in duplicate, read-out: % inhibition of control values
Sequence of NEK1 (h) (Q96PY6 whole entry): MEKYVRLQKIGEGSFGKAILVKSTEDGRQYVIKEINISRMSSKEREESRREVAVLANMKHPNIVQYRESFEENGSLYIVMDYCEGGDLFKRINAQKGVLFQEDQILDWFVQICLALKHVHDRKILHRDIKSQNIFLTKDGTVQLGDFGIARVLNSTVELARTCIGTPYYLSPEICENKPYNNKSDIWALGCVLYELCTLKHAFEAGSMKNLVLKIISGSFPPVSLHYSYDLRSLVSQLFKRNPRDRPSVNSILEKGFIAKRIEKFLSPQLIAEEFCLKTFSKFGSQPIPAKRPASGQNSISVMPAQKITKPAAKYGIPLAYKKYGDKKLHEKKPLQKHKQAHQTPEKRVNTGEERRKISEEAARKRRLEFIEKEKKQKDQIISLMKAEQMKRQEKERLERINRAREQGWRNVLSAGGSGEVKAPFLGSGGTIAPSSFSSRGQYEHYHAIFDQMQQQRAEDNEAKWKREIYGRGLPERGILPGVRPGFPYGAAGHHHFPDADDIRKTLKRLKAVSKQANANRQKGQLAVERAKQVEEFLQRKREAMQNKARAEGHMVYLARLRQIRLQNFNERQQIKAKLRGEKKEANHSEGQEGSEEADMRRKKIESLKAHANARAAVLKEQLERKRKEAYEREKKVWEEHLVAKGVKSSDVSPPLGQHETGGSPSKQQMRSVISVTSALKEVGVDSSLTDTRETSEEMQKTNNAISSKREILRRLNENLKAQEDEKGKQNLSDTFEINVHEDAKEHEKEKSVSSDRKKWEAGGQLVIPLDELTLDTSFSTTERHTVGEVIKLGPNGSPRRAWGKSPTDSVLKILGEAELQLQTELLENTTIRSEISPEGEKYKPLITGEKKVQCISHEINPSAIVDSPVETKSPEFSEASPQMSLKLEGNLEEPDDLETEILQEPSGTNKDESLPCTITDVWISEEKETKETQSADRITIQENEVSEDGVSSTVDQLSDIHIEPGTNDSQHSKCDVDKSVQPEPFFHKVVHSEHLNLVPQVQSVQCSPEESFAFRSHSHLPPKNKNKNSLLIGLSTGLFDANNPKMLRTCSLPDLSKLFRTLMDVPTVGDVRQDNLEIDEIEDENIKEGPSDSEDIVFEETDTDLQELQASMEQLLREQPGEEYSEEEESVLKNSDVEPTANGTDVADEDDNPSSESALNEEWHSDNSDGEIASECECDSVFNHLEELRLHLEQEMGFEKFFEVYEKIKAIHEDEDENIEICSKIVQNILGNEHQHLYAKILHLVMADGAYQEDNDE
Experimental: as §1, §2, §3, §4, §5, §6

[7] = molecular target: GSK3beta (h) (Homo sapiens (Human), UniProt P49841); test: Kinase selectivity panel: GSK3beta (h); assay type: biochemical; details: for inhibition at 10 µM: GSK3beta (h), 10 μM in duplicate, read-out: % inhibition of control values; for selectivity for GSK-3β compared to the other kinases of the panel: panel of 60 kinases, 10 μM, conclusion in words
Sequence of GSK3beta (h) (P49841 whole entry): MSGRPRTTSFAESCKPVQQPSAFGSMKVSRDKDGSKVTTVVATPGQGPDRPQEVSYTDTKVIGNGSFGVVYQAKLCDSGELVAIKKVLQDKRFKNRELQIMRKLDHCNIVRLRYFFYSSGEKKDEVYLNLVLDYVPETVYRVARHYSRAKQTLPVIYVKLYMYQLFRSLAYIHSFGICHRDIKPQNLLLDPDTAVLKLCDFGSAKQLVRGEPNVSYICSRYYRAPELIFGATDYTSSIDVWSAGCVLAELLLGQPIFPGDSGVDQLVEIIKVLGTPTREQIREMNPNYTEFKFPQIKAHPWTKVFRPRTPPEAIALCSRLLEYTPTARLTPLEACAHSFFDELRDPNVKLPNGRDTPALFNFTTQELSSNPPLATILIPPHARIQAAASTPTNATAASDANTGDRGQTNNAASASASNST
Experimental: as §1, §2, §3, §4, §6

[8] = molecular target: CDK2 (h) (cycA) (Homo sapiens (Human), UniProt P24941); test: Kinase selectivity panel: CDK2 (h) (cycA); assay type: biochemical; details: 10 μM in duplicate, read-out: % inhibition of control values
Experimental: as §1, §2, §3, §4, §5, §6

[9] = molecular target: PCTAIRE1 kinase (h) (Homo sapiens (Human), UniProt Q00536); test: Kinase selectivity panel: PCTAIRE1 kinase (h); assay type: biochemical; details: 10 μM in duplicate, read-out: % inhibition of control values
Experimental: as §1, §2, §3, §4, §5, §6

[10] = molecular target: smMLCK (h) (MYLK) (Homo sapiens (Human), UniProt Q15746); test: Kinase selectivity panel: smMLCK (h) (MYLK); assay type: biochemical; details: 10 μM in duplicate, read-out: % inhibition of control values
Experimental: as §1, §2, §3, §4, §5, §6

[11] = molecular target: MEK1/MAP2K1 (h) (Homo sapiens (Human), UniProt Q02750); test: Kinase selectivity panel: MEK1/MAP2K1 (h); assay type: biochemical; details: 10 μM in duplicate, read-out: % inhibition of control values
Experimental: as §1, §2, §3, §4, §5, §6

[12] = molecular target: ERK1 (h) (Homo sapiens (Human), UniProt P27361); test: Kinase selectivity panel: ERK1 (h); assay type: biochemical; details: 10 μM in duplicate, read-out: % inhibition of control values
Sequence of ERK1 (h) (P27361 whole entry): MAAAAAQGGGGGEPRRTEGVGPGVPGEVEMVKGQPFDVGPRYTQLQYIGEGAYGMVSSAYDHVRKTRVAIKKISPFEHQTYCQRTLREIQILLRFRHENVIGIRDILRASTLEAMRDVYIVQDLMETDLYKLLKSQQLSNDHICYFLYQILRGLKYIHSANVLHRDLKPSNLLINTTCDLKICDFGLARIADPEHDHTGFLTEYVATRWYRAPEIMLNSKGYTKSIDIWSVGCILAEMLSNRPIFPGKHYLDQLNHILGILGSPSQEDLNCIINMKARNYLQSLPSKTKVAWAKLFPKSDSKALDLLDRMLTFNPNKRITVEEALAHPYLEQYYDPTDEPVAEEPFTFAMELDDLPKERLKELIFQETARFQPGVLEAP
Experimental: as §1, §2, §3, §4, §5, §6

[13] = molecular target: TRKA (h) (Homo sapiens (Human), UniProt P04629); test: Kinase selectivity panel: TRKA (h); assay type: biochemical; details: 10 μM in duplicate, read-out: % inhibition of control values
Experimental: as §1, §2, §3, §4, §5, §6

[14] = molecular target: Src kinase (h) (Homo sapiens (Human), UniProt P12931); test: Kinase selectivity panel: Src kinase (h); assay type: biochemical; details: 10 μM in duplicate, read-out: % inhibition of control values
Experimental: as §1, §2, §3, §4, §5, §6

[15] = molecular target: ERK2 (h) (P42mapk) (Homo sapiens (Human), UniProt P28482); test: Kinase selectivity panel: ERK2 (h) (P42mapk); assay type: biochemical; details: 10 μM in duplicate, read-out: % inhibition of control values
Sequence of ERK2 (h) (P42mapk) (P28482 whole entry): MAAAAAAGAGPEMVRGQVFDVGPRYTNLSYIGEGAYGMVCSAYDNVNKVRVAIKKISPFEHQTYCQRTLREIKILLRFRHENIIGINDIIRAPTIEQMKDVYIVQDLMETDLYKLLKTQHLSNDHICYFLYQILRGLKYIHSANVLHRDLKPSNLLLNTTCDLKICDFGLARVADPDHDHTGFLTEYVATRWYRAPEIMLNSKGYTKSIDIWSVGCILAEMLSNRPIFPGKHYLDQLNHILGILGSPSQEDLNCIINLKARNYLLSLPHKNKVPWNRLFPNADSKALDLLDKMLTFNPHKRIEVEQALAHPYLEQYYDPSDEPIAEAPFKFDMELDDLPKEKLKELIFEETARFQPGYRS
Experimental: as §1, §2, §3, §4, §5, §6

[16] = molecular target: IRK (h) (InsR) (Homo sapiens (Human), UniProt P06213); test: Kinase selectivity panel: IRK (h) (InsR); assay type: biochemical; details: 10 μM in duplicate, read-out: % inhibition of control values
Experimental: as §1, §2, §3, §4, §5, §6

[17] = molecular target: human GSK-3β (Homo sapiens (Human), UniProt P49841); test: GSK-3β LanthaScreen TR-FRET Eu Kinase binding and displacement assay; details: compounds 16 to 41, LanthaScreen TR-FRET binding and displacement assay, five concentrations 100 μM to 10 nM
Sequence of human GSK-3β (P49841 whole entry): as the sequence (P49841 whole entry) above
Experimental: In a second assay, the same compounds were assayed at five concentrations ranging from 100 μM to 10 nM with ten-fold dilutions in duplicate. Compounds 1 to 15 were tested using the same first assay, compounds 16 to 41 were tested in another assay based on the binding and displacement of AlexaFluor® 647 labeled, ATP-competitive Kinase inhibitor scaffold using LanthaScreen™ TR-FRET technology Eu Kinase assay packet according to manufacturer's instruction (Life Technologies, Italy).
The IC50 values (concentration causing a half maximal inhibition of control specific activity), reported in table 4, were determined by non-linear regression analysis of the inhibition curves generated with mean replicate values using Hill equation curve fitting.

Row | inhibition at 10 µM [1] | inhibition at 10 µM [2] | inhibition at 10 µM [3] | inhibition at 10 µM [4] | inhibition at 10 µM [5] | inhibition at 10 µM [6] | inhibition at 10 µM [7] | inhibition at 10 µM [8] | inhibition at 10 µM [9] | inhibition at 10 µM [10] | inhibition at 10 µM [11] | inhibition at 10 µM [12] | inhibition at 10 µM [13] | inhibition at 10 µM [14] | inhibition at 10 µM [15] | inhibition at 10 µM [16] | IC50 [17] | SMILES | selectivity for GSK-3β compared to the other kinases of the panel [7]
1 | 10% | 16% | 10% | 9% | 77% | 0% | 89% | 35% | 27% | 1% | 9% | 1% | 0% | 9% | 9% | 0% | 960 nM | CCc1ccc2[nH]nc(C(=O)NCC3CCN(CC(=O)O)CC3)c2c1 [Compound 31, [4-({[(5-ethyl-1H-indazol-3-yl)carbonyl]amino}methyl)piperidin-1-yl]acetic acid] | good selectivity profile
2 | 80% | 77% | 71% | 61% | 100% | 9% | 100% | 77% | 49% | 17% | 75% | 61% | 3% | 0% | 67% | 0% | 30 nM | O=C(O)CN1CCC(CNC(=O)c2n[nH]c3ccc(-c4cccc(F)c4F)cc23)CC1 [Compound 29, {4-[({[5-(2,3-difluorophenyl)-1H-indazol-3-yl]carbonyl}amino)methyl]piperidin-1-yl}acetic acid] | good affinity to GSK-3β when compared to most of other kinases of the same family
